Structures can show the parent of a compound that is named as a salt.
What follows are compounds tested against factor Xa (Homo sapiens, UniProt P00742) (assay: Factor Xa assay (Test 1a), chromogenic). Conditions: in vitro factor Xa assay Test 1a; human factor Xa 0.5 nM, substrate S-2765 140 μM, 25° C.; Ki from IC50 corrected for substrate competition.
Format: biochemical
Parameters: purchased Enzyme Research Laboratories, Inc; South Bend, Ind
From the text: The ability of a compound of formula (I) to inhibit factor Xa, thrombin, plasmin, elastase, and trypsin may be assessed by determining the concentration of compound of formula (I) that inhibits enzyme activity by 50% (IC50). Purified enzymes are used in chromogenic assays. To determine the inhibition constant, the IC50 value is corrected for competition with substrate using the formula:
Ki=IC50×(1/{1+((substrate concentration)/substrate Km)})
where Km is the Michaelis-Menten constant. Y. -C. Chen and W. H. Prusoff, Biochem. Pharmacol. 22: […] (1973), which is incorporated herein by reference.
TBS-PEG buffer (50 mM Tris-Cl, pH 7.8, 200 mM NaCl, 0.05% (w/v) PEG-8000, 0.02% (w/v) NaN3) is used for this assay. The IC50 is determined by combining in appropriate wells of a Costar half-area microtiter plate 25 μl human factor Xa (Enzyme Research Laboratories, Inc.; South Bend, Ind.) in TBS-PEG; 40 μl 10% (v/v) DMSO in TBS-PEG (uninhibited control) or various concentrations of the compound to be tested diluted in 10% (v/v) DMSO in TBS-PEG; and substrate S-2765 (N-benzyloxycarbonyl-D-Arg-Gly-L-Arg-p-nitroanilide; Kabi Pharmacia, Inc.; Franklin Ohio) in TBS-PEG.
The assays are performed by pre-incubating the compound of formula (I) plus enzyme for 10 min, then the assay is initiated by adding substrate to obtain a final volume of 100 μl. The initial velocity of chromogenic substrate hydrolysis is measured by the change in absorbance at 405 nm using a Bio-tek Instruments kinetic plate reader (Ceres UV900HDi) at 25° C. during the linear portion of the time course (usually 1.5 min after addition of substrate). The concentration of inhibitor that causes a 50% decrease in the rate of substrate hydrolysis is predicted by linear regression after plotting the relative rates of hydrolysis (compared to the uninhibited control) versus the log of the compound of formula (I) concentration. The enzyme concentration is 0.5 nM and substrate concentration is 140 μM.

Chain of factor Xa (P00742 235-488 limits assumed): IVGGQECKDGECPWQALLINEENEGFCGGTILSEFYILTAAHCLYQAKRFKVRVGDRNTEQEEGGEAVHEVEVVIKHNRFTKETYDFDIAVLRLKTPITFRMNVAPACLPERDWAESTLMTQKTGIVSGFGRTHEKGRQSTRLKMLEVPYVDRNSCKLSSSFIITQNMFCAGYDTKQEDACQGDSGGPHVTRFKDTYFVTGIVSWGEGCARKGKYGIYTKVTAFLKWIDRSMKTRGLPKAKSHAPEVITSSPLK
Chain of factor Xa (P00742 41-179 limits assumed): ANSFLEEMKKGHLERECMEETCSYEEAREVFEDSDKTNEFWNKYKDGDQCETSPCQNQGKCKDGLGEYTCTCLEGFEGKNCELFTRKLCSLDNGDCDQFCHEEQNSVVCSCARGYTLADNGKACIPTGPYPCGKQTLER

| Ki [nM] | Compound |
| --- | --- |
| 55 | N=C(N)c1ccc(CNC(=O)[C@@H](NC(=O)C(Cc2ccc(CN)cc2)C2CCCCC2)C2CCCCC2)cc1 (mixture of isomers) [Example 138, 3-(4-Aminomethyl-phenyl)-N-[(S)-(4-carbamimidoyl-benzyl-carbamoyl)-cyclohexyl-methyl]-2-(R,S)-cyclohexyl-propionamide acetic acid salt] |
| 5 | CCOC(=O)C(CCCNC(=N)N)NC(=O)C(NC(=O)C(Cc1ccc(C(=N)N)cc1)C1CCCCC1)C1CCCCC1 (single isomer, unassigned; less polar) [Example 5] |
| 3 | Cc1ccccc1C(Cc1ccc(C(=N)N)cc1)C(=O)N[C@H](C(=O)N[C@@H](CCCNC(=N)N)C(N)=O)C1CCCCC1 (mixture of isomers) [Example 140, 2-(S)-{2-(S)-[3-(4-Carbamimidoyl-phenyl)-2-(R,S)-o-tolyl-propionylamino]-2-cyclohexyl-acetylamino}-5-guanidino-pentanoic acid amide hydrochloric acid salt] |
| 30 | CC(Cc1ccc(C(=N)N)cc1)(C(=O)N[C@@H](COCc1ccccc1)C(=O)N[C@@H](CCCNC(=N)N)C(N)=O)c1ccccc1 (mixture of isomers) [Example 70, 2-(S)-{3-Benzyloxy-2-(S)-[3-(4-carbamimidoyl-phenyl)-2-(R,S)-methyl-2-phenyl-propionylamino]-propionylamino}-5-guanidino-pentanoic acid amide trifluoroacetic acid salt] |
| 22.5 | N=C(N)NCCC[C@H](NC(=O)[C@@H](NC(=O)C(Cc1ccc(C(=N)N)cc1)c1ccc2ccccc2c1)C1CCCCC1)C(=O)O (mixture of isomers) [Example 79, 2-(S)-{2-(S)-[3-(4-Carbamimidoyl-phenyl)-2-(R,S)-naphthalen-2-yl-propionyl-amino]-2-cyclohexyl-acetylamino}-5-guanidino-pentanoic acid trifluoroacetic acid salt] |
| 44 | N=C(N)NCCC[C@H](NC(=O)C(NC(=O)C(Cc1ccc(C(=N)N)cc1)C1CCCCC1)C1CCCCC1)C(=O)NCc1cccs1 (stereo partly drawn) [Example 192, 2-(S)-{2-[3-(4-Carbamimidoyl-phenyl)-2-cyclohexyl-propionylamino]-2-cyclohexyl-acetylamino}-5-guanidino-pentanoic acid (thiophen-2-ylmethyl)-amide trifluoroacetic acid salt] |
| 67 | N=C(N)NCCC[C@H](NC(=O)[C@H](Cc1ccccc1)NC(=O)C(Cc1ccc(C(=N)N)cc1)c1cccnc1)C(N)=O (mixture of isomers) [Example 106, 2-(S)-{2-(S)-[3-(4-Carbamimidoyl-phenyl)-2-(R,S)-pyridin-3-yl-propionylamino]-3-phenyl-propionylamino}-5-guanidino-pentanoic acid amide trifluoroacetic acid salt] |
| 2 | N=C(N)NCCCC(NC(=O)C(NC(=O)C(Cc1ccc(C(=N)N)cc1)C1CCCCC1)C1CCCCC1)C(N)=O (single isomer, unassigned) [Example 110] |
| 1 | N=C(N)c1ccc(CC(C(=O)NC(C(=O)NCC2CCN(C(=N)N)CC2)C2CCCCC2)c2cccc(Cl)c2)cc1 (single isomer, unassigned; less polar) [Example 176] |
| 1930 | N=C(N)NCCC[C@H](NC(=O)[C@H](CO)NC(=O)C(Cc1ccc(C(=N)N)cc1)c1ccccc1)C(N)=O (mixture of isomers) [Example 57, 2-(S)-{2-(S)-[3-(4-Carbamimidoyl-phenyl)-2-(R,S)-phenyl-propionylamino]-3-hydroxy-propionylamino}-5-guanidino-pentanoic acid amide trifluoroacetic acid salt] |
| 19 | N=C(N)c1ccc(CNC(=O)[C@@H](NC(=O)C(Cc2ccc(C(=N)N)cc2)c2cccc(Cl)c2)C2CCCCC2)cc1 (mixture of isomers) [Example 157, N-[(S)-(4-Carbamimidoyl-benzylcarbamoyl)-cyclohexyl-methyl]-3-(4-carbamimidoyl-phenyl)-2-(R,S)-(3-chloro-phenyl)-propionamide hydrochloric acid salt] |
| 9.1 | N=C(N)NCCC[C@H](NC(=O)[C@@H](NC(=O)C(Cc1ccc(C(=N)N)cc1)c1ccc2ccccc2c1)C1CCCCC1)C(N)=O (mixture of isomers) [Example 95, 2-(S)-{2-(S)-[3-(4-Carbamimidoyl-phenyl)-2-(R,S)-naphthalen-2-yl-propionylamino]-2-cyclohexyl-acetylamino}-5-guanidino-pentanoic acid amide trifluoroacetic acid salt] |
| 1070 | CN(C(=O)C(Cc1ccc(C(=N)N)cc1)c1cccnc1)[C@@H](Cc1ccccc1)C(=O)N[C@@H](CCCNC(=N)N)C(N)=O (mixture of isomers) [Example 26, 2-(S)-(2-(S)-{[3-(4-Carbamimidoyl-phenyl)-2-(R,S)-pyridin-3-yl-propionyl]-methyl-amino}-3-phenyl-propionylamino)-5-guanidino-pentanoic acid amide trifluoroacetic acid salt] |
| 100 | Cc1ccc(C(Cc2ccc(C(=N)N)cc2)C(=O)N[C@H](C(=O)N[C@@H](CCCNC(=N)N)C(N)=O)C2CCCCC2)cc1 (mixture of isomers) [Example 141, 2-(S)-{2-(S)-[3-(4-Carbamimidoyl-phenyl)-2-(R,S)-p-tolyl-propionylamino]-2-cyclohexyl-acetylamino}-5-guanidino-pentanoic acid amide hydrochloric acid salt] |
| 310 | CCC(C)[C@@H](C(=O)N[C@@H](CCCNC(=N)N)C(N)=O)N(C)C(=O)C(Cc1ccc(C(=N)N)cc1)c1cccnc1 (mixture of isomers) [Example 18, 2-(S)-{[3-(4-Carbamimidoyl-phenyl)-2-(R,S)-pyridin-3-yl-propionyl]-methyl-amino}-3-methyl-pentanoic acid (1-(S)-carbamoyl-4-guanidino-butyl)-amide trifluoroacetic acid salt] |

| Compound | Ki [nM] |
| --- | --- |
| N=C(N)c1ccc(CC(C(=O)N[C@H](C(=O)NCC2CCN(C(=N)N)CC2)C2CCCCC2)c2cccc3ccccc23)cc1 (single isomer, unassigned; less polar) [Example 241] | 25 |
| N=C(N)NCCC[C@H](NC(=O)C(NC(=O)C(Cc1ccc(C(=N)N)cc1)C1CCCCC1)C1CCCCC1)C(=O)NC(c1ccccc1)c1ccccc1 (stereo partly drawn) [Example 195, 2-(S)-2-[3-(4-Carbamimidoyl-phenyl)-2-cyclohexyl-propionylamino]-2-cyclohexyl-acetylamino}-5-guanidino-pentanoic acid benzhydryl-amide trifluoroacetic acid salt] | 32 |
| CN(C)C(=O)[C@H](CCCNC(=N)N)NC(=O)[C@@H](NC(=O)C(Cc1ccc(C(=N)N)cc1)c1cccc(Br)c1)C1CCCCC1 (single isomer, unassigned; less polar) [Example 246] | 0.7 |
| N=C(N)c1ccc(CC(C(=O)N[C@H](C(=O)NCC2CCC(C(=N)N)CC2)C2CCCCC2)c2cccc(Br)c2)cc1 (single isomer, unassigned; less polar) [Example 219] | 5 |
| CC(C)OC(=O)[C@H](CCCNC(=N)N)NC(=O)[C@@H](NC(=O)C(Cc1ccc(C(=N)N)cc1)c1cccc(Br)c1)C1CCCCC1 (single isomer, unassigned; less polar) [Example 242] | 2 |
| CCCCOC(=O)[C@H](CCCNC(=N)N)NC(=O)[C@@H](NC(=O)C(Cc1ccc(C(=N)N)cc1)C1CCCCC1)C1CCCCC1 (single isomer, unassigned; less polar) [Example 188] | 22 |

— patent publication US6759420B1, “Arylalkanoyl derivatives, processes for their preparation, their use and pharmaceutical compositions containing them” (Aventis Pharma Deutschland GmbH, priority 1999, dated 2004)
